# Data published in PubChem BioAssay AID256 (DTP/NCI, 2004).
# Inconclusive results and toxic doses are left out.
# System: CD2F1 mice, L1210 leukemia ip, survival T/C
# Assay: NCI In Vivo Anticancer Drug Screen. Data for tumor model L1210 Leukemia (intraperitoneal) in CD2F1 (CDF1) mice
# Details: higher = longer survival
# Procedure, shortened: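 Implant tumor; dose compound or vehicle; measure endpoint in both groups; report treated divided by control.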
# [1] = endpoint: mean survival time, dose: 100.0 mg/kg/injection, schedule: Q01DX001 (ip), vehicle: saline with Tween-80
# [2] = endpoint: mean survival time, dose: 200.0 mg/kg/injection, schedule: Q01DX001 (ip), vehicle: saline with Tween-80
# [3] = endpoint: mean survival time, dose: 100.0 mg/kg/injection, schedule: Q01DX009 (ip), vehicle: saline with Tween-80
# [4] = endpoint: mean survival time, dose: 100.0 mg/kg/injection, schedule: Q04DX003 (ip), vehicle: saline with Tween-80
# [5] = endpoint: mean survival time, dose: 200.0 mg/kg/injection, schedule: Q01DX009 (ip), vehicle: saline with Tween-80
# [6] = endpoint: mean survival time, dose: 200.0 mg/kg/injection, schedule: Q04DX003 (ip), vehicle: saline with Tween-80
# [7] = endpoint: mean survival time, dose: 400.0 mg/kg/injection, schedule: Q01DX009 (ip), vehicle: saline with Tween-80
# [8] = endpoint: mean survival time, dose: 400.0 mg/kg/injection, schedule: Q04DX003 (ip), vehicle: saline with Tween-80
# [9] = endpoint: mean survival time, dose: 100.0 mg/kg/injection, schedule: Q01DX001 (ip), vehicle: saline
smiles,measurement,setting,value
COC(=O)c1ccc(C(=O)CC(=O)c2ccccc2)cc1,T/C,"endpoint: median survival time, dose: 25.0 mg/kg/injection, schedule: Q04DX003 (ip), vehicle: saline with Tween-80",100 % of control
same,T/C,"endpoint: median survival time, dose: 50.0 mg/kg/injection, schedule: Q04DX003 (ip), vehicle: saline with Tween-80",88 % of control
same,T/C,"endpoint: median survival time, dose: 100.0 mg/kg/injection, schedule: Q04DX003 (ip), vehicle: saline with Tween-80",88 % of control
same,T/C,"endpoint: median survival time, dose: 200.0 mg/kg/injection, schedule: Q04DX003 (ip), vehicle: saline with Tween-80",88 % of control
Nc1ccn(C2OC(CO)C(OP(=O)(O)O)C2O)c(=O)n1 (configuration not stated),T/C,"endpoint: mean survival time, dose: 4.4 mg/kg/injection, schedule: Q03HX024 (ip), vehicle: saline",229 % of control
same,T/C,"endpoint: mean survival time, dose: 8.7 mg/kg/injection, schedule: Q03HX024 (ip), vehicle: saline",252 % of control
same,T/C,"endpoint: mean survival time, dose: 17.4 mg/kg/injection, schedule: Q03HX024 (ip), vehicle: saline",296 % of control
same,T/C,"endpoint: mean survival time, dose: 34.8 mg/kg/injection, schedule: Q03HX024 (ip), vehicle: saline",111 % of control
same,T/C,"endpoint: mean survival time, dose: 200.0 mg/kg/injection, schedule: Q01DX009 (oral), vehicle: saline",159 % of control
same,T/C,"endpoint: mean survival time, dose: 400.0 mg/kg/injection, schedule: Q01DX009 (oral), vehicle: saline",175 % of control
Cc1nc2ccccc2[nH]1,T/C,[1],102 % of control
same,T/C,[2],105 % of control
Clc1ccc(Sc2ccc(Cl)cc2)cc1,T/C,[1],94 % of control
same,T/C,[3],98 % of control
same,T/C,[4],91 % of control
same,T/C,[2],108 % of control
same,T/C,[5],102 % of control
same,T/C,[6],91 % of control
same,T/C,"endpoint: mean survival time, dose: 400.0 mg/kg/injection, schedule: Q01DX001 (ip), vehicle: saline with Tween-80",91 % of control
same,T/C,[7],98 % of control
O=[P+](O)C(O)c1ccccc1 (configuration not stated),T/C,"endpoint: mean survival time, dose: 100.0 mg/kg/injection, schedule: Q04DX003 (ip), vehicle: saline",108 % of control
same,T/C,"endpoint: mean survival time, dose: 200.0 mg/kg/injection, schedule: Q04DX003 (ip), vehicle: saline",111 % of control
same,T/C,"endpoint: mean survival time, dose: 400.0 mg/kg/injection, schedule: Q04DX003 (ip), vehicle: saline",117 % of control
O=c1c2cc[nH]c2ncn1C1OC(CO)C(O)C1O (configuration not stated),T/C,"endpoint: mean survival time, dose: 12.5 mg/kg/injection, schedule: Q01DX005 (ip), vehicle: saline",96 % of control
same,T/C,"endpoint: mean survival time, dose: 25.0 mg/kg/injection, schedule: Q01DX005 (ip), vehicle: saline",107 % of control
COc1cc(C)c2c(c1C=O)Oc1c(c(C)c(O)c3c1C(O)OC3=O)OC2=O (configuration not stated),T/C,"endpoint: mean survival time, dose: 3.12 mg/kg/injection, schedule: Q01DX009 (ip), vehicle: saline",94 % of control
same,T/C,"endpoint: mean survival time, dose: 6.25 mg/kg/injection, schedule: Q01DX009 (ip), vehicle: saline",92 % of control
same,T/C,"endpoint: mean survival time, dose: 12.5 mg/kg/injection, schedule: Q01DX009 (ip), vehicle: saline",100 % of control
same,T/C,"endpoint: mean survival time, dose: 25.0 mg/kg/injection, schedule: Q01DX009 (ip), vehicle: saline",92 % of control
same,T/C,"endpoint: mean survival time, dose: 50.0 mg/kg/injection, schedule: Q01DX009 (ip), vehicle: saline",97 % of control
CC1(C)COC(CCc2ccccc2)=N1,T/C,"endpoint: mean survival time, dose: 100.0 mg/kg/injection, schedule: Q04DX002 (ip), vehicle: saline with Tween-80",108 % of control
same,T/C,[4],104 % of control
same,T/C,"endpoint: mean survival time, dose: 200.0 mg/kg/injection, schedule: Q04DX002 (ip), vehicle: saline with Tween-80",101 % of control
same,T/C,[6],93 % of control
same,T/C,"endpoint: mean survival time, dose: 400.0 mg/kg/injection, schedule: Q04DX002 (ip), vehicle: saline with Tween-80",101 % of control
same,T/C,[8],86 % of control
CCc1ccc(C(=O)CCCCl)cc1,T/C,[3],104 % of control
same,T/C,[5],100 % of control
same,T/C,[7],100 % of control
CSc1nc2cc(S(=O)(=O)N3CCCCC3)ccc2s1,T/C,[3],93 % of control
same,T/C,[4],89 % of control
same,T/C,[5],95 % of control
same,T/C,[6],89 % of control
same,T/C,[7],93 % of control
same,T/C,[8],86 % of control
CC(C)(C)OC(=O)C12CCCC(C(=O)OC(C)(C)C)(OO1)O2,T/C,[9],95 % of control
same,T/C,"endpoint: mean survival time, dose: 200.0 mg/kg/injection, schedule: Q01DX001 (ip), vehicle: saline",95 % of control
same,T/C,"endpoint: mean survival time, dose: 400.0 mg/kg/injection, schedule: Q01DX001 (ip), vehicle: saline",101 % of control
CC12C(=O)C(C(c3ccccc3)=C1c1ccccc1)C(C(=O)O)C2C(=O)O (configuration not stated),T/C,[4],89 % of control
same,T/C,[6],93 % of control
same,T/C,[8],101 % of control
CCOc1ccc(Nc2c3ccccc3nc3ccccc23)cc1,T/C,[5],88 % of control
O/N=C1\CN2CCC1CC2,T/C,[1],91 % of control
COc1cc([N+](=O)[O-])c2nc(/C=N/NC(N)=S)ccc2c1,T/C,[9],89 % of control
CCOC(=O)C(F)(F)F,T/C,"endpoint: mean survival time, dose: 100.0 mg/kg/injection, schedule: Q01DX009 (ip), vehicle: saline",95 % of control
same,T/C,"endpoint: mean survival time, dose: 200.0 mg/kg/injection, schedule: Q01DX009 (ip), vehicle: saline",103 % of control
same,T/C,"endpoint: mean survival time, dose: 400.0 mg/kg/injection, schedule: Q01DX009 (ip), vehicle: saline",95 % of control
